Where two headings read alike, the source gives them in different places.
What was measured:
CYP3A4 = CYP3A4 (Homo sapiens, UniProt P08684); test: Recombinant CYP inhibition test, CYP3A4; type: in vitro ADME; settings: at 10 μM
[1] = system: PCP-disrupted PPI in mice; test: Normalization of PCP-disrupted prepulse inhibition; type: in vivo; settings: 6 mg/kg PCP ip
[2] = Microsomal stability, human microsomes; type: in vitro ADME; settings: 1h assay
CYP2C9 = CYP2C9 (Homo sapiens, UniProt P11712); test: Recombinant CYP inhibition test, CYP2C9; type: in vitro ADME; settings: at 10 μM
Chain of CYP2C9 (P11712 whole entry): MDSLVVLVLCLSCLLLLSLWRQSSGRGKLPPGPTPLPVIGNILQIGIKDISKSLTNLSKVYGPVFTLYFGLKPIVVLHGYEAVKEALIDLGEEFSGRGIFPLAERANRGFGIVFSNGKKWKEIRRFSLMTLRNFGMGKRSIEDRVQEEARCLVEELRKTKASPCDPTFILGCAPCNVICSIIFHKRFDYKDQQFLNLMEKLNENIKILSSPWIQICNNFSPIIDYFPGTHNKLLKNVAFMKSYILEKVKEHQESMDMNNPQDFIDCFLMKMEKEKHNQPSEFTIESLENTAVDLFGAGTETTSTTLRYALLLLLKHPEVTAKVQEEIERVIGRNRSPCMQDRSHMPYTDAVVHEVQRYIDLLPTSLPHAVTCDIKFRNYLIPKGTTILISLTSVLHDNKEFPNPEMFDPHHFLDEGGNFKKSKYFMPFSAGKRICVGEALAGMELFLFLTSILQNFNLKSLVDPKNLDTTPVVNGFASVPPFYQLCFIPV

animals = test: Adverse side effects in animals; settings: in vivo
[3] = Microsomal stability, rat microsomes; type: in vitro ADME; settings: 1h assay
CYP2D6 = CYP2D6 (Homo sapiens, UniProt P10635); test: Recombinant CYP inhibition test, CYP2D6; type: in vitro ADME; settings: at 10 μM
Chain of CYP2D6 (P10635 whole entry): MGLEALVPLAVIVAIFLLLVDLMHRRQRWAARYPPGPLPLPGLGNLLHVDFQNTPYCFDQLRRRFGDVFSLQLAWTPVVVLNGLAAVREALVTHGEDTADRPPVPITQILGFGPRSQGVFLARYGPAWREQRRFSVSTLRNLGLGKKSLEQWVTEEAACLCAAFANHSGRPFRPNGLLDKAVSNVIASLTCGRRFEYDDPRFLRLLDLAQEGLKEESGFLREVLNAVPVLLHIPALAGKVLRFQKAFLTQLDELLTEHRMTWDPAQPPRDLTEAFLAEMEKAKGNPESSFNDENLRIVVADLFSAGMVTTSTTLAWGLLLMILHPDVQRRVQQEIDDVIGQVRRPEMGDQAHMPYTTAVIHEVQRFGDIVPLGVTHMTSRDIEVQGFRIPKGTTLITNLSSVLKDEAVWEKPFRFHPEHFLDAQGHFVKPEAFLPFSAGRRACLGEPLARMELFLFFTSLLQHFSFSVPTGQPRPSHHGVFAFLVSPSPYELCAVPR

hERG = hERG (Homo sapiens, UniProt Q12809); test: hERG assay; settings: for hERG inhibition: result in words
Chain of hERG (Q12809 whole entry): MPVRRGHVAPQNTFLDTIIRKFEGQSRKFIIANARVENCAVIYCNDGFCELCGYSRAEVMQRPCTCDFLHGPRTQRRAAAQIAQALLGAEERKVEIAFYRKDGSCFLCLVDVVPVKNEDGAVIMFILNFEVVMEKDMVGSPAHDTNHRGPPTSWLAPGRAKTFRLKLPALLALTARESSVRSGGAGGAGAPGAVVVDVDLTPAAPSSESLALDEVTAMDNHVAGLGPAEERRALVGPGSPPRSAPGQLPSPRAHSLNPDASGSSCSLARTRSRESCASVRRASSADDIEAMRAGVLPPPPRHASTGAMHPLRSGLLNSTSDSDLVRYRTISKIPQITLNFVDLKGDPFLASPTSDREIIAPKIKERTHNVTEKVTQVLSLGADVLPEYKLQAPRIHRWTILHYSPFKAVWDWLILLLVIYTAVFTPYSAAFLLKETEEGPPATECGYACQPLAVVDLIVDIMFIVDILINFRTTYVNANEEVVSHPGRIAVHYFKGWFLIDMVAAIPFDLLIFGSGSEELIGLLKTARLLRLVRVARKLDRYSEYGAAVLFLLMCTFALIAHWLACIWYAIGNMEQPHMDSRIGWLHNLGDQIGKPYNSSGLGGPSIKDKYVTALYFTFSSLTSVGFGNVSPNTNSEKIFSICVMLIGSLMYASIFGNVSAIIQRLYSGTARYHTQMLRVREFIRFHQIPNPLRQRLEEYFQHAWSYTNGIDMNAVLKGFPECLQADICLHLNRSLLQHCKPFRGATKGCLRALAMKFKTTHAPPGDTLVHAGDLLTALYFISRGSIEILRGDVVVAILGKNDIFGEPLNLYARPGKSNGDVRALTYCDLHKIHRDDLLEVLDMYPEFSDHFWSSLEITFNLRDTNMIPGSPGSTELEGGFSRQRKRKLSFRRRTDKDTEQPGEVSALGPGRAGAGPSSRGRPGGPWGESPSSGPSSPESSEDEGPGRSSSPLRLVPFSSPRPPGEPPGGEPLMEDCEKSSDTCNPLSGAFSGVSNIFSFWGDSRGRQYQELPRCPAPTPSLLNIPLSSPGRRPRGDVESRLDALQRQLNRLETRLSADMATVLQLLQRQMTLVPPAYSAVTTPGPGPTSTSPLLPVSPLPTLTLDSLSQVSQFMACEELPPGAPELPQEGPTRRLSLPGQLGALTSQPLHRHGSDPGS

human 5-HT2B receptor = human 5-HT2B receptor (Homo sapiens, UniProt P41595); test: Calcium flux; type: cell-based; settings: for 5-HT2B %MAX ± SEM: percent of maximal activation by 5-HT, activation at 10 μM for compounds without EC50 value
Chain of human 5-HT2B receptor (P41595 whole entry): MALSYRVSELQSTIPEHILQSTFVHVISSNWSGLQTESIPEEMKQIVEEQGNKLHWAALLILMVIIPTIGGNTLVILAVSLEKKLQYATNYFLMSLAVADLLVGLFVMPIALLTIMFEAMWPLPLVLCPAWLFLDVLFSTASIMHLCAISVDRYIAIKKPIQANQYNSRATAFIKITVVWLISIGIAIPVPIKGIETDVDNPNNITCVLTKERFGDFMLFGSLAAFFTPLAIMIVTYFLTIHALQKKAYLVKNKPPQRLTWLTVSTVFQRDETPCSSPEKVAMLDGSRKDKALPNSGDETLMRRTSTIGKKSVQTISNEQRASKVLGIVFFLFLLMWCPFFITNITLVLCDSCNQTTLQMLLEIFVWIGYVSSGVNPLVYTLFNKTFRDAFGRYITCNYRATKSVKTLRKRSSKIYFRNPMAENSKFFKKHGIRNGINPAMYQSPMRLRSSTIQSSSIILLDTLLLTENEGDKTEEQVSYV

[4] = target: T1, human 5-HT2C (INI) receptor (Homo sapiens, UniProt P28335); test: Calcium flux; type: cell-based; settings: for 5-HT2C %MAX ± SEM: percent of maximal activation by 5-HT; for Selectivity 2A/2C / Selectivity 2B/2C: ratio of EC50 values
T1 sequence (P28335 33-458): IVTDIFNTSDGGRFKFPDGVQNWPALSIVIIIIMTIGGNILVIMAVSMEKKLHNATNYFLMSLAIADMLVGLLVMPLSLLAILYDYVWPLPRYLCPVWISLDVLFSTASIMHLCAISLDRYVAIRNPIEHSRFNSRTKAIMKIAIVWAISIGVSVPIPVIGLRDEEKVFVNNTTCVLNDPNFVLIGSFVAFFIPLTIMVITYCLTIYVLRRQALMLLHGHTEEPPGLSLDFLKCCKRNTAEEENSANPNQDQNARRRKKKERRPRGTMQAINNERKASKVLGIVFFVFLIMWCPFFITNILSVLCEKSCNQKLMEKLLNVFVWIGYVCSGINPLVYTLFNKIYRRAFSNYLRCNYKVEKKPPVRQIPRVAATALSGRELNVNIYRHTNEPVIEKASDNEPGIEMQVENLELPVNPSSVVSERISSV

human 5-HT2A receptor = human 5-HT2A receptor (Homo sapiens, UniProt P28223); test: Calcium flux; type: cell-based; settings: for 5-HT2A %MAX ± SEM: percent of maximal activation by 5-HT, activation at 10 μM for compounds without EC50 value; for 5-HT2A EC50 ± SEM: HEK-293, calcium flux
Chain of human 5-HT2A receptor (P28223 whole entry): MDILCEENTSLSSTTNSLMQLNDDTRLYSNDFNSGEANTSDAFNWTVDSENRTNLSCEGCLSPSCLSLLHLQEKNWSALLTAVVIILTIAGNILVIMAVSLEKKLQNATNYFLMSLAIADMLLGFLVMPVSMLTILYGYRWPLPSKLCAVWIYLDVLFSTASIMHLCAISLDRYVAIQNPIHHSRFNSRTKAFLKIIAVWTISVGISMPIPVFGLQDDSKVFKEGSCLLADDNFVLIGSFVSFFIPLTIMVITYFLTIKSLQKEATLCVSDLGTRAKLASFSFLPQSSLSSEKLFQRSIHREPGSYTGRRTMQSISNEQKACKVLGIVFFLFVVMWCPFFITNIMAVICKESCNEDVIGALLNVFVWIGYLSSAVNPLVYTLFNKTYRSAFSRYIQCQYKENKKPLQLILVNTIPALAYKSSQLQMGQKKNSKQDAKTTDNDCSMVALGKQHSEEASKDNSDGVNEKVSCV

[5] = system: PCP-disrupted PPI in mice; settings: identical PPI testing paradigm, earlier work; cited from earlier work

Chain of CYP3A4 (P08684 whole entry): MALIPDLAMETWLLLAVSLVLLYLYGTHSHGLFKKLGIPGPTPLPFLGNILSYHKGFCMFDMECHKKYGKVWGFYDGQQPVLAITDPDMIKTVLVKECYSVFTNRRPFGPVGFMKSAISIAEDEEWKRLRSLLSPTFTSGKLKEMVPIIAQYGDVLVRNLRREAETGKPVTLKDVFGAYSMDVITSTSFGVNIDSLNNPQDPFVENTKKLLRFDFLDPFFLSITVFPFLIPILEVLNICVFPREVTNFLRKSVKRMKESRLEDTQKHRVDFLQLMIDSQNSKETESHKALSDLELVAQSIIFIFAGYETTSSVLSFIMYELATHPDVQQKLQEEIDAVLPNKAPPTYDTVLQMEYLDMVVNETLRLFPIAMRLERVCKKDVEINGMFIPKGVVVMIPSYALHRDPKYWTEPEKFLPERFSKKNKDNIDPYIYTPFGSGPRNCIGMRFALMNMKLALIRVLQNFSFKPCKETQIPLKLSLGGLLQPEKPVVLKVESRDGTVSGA

Which CYP3A4 inhibition (CYP3A4; midazolam as substrate) does the source give for NCC1CC1c1cc(F)ccc1OCC1CC1 (single isomer, unassigned; (+)) [(+)-12, trans-[2-(2 cyclopropylmethyloxy-5-fluorophenyl)cyclopropyl]-methylamine] here?
Its CYP3A4 inhibition is 21.7%.

What about the CYP3A4 inhibition (CYP3A4; testosterone as substrate) of the same compound?
Its CYP3A4 inhibition is 25.1%.

What about the “Normalization of PCP-disrupted PPI” value ([1]; 5 mg/kg dose level) of the same compound?
Its value is “still effective”.

And the “Normalization of PCP-disrupted PPI” value ([1]; 10 mg/kg)?
Its value is “able to normalize PCP-disrupted PPI”.

And the “Normalization of PCP-disrupted PPI (Figure 3)” value ([1]; 30 min pre-treatment, dose not stated in legend)?
The value was “effectively normalize PCP-disruption of PPI”.

What about the “Microsomal stability, % left” value [2] of the same compound?
Its value is 90.5%.

What about the CYP2C9 inhibition (CYP2C9) of the same compound?
The CYP2C9 inhibition was 19.6%.

And the “Adverse side effects in animals” value (animals)?
The value was “no adverse side effects”.

What about the “Microsomal stability, % left” value [3] of the same compound?
The value was 66%.

What about the CYP2D6 inhibition (CYP2D6) of the same compound?
Its CYP2D6 inhibition is 27.0%.

What about the hERG inhibition (hERG) of the same compound?
Its hERG inhibition is “no hERG inhibition was detected”.

With C[C@H]1CNCCc2ccc(Cl)cc21 [2 (Lorcaserin), Lorcaserin] as the compound, how does the “5-HT2B %MAX ± SEM” value (human 5-HT2B receptor; first screening campaign) read?
Its value is 93% ± 1.2%.

What about the hERG inhibition (hERG) of the same compound?
The hERG inhibition was “no hERG inhibition was detected”.

With c1cc2c3c(c1)[C@H]1CCC[C@H]1CN3CCNC2 [3 (Vabicaserin), Vabicaserin] as the compound, how does the hERG inhibition (hERG) read?
The hERG inhibition was “no hERG inhibition was detected”.

Which “5-HT2C %MAX ± SEM” value ([4]; first screening campaign) does the source give for O=C1Nc2cc(Cl)c(Cl)cc2N2CCNCC12 (centres unmarked) [4 (WAY-161503), WAY-161503] here?
Its value is 97% ± 1.6%.

What about the “Selectivity 2A/2C” value ([4]; first screening campaign) of the same compound?
Its value is 70.

What about the “Selectivity 2B/2C” value ([4]; first screening campaign) of the same compound?
The value was 14.

And the “5-HT2C %MAX ± SEM” value ([4]; second screening campaign)?
Its value is 94% ± 3.6%.

What about the “Selectivity 2A/2C” value ([4]; second screening campaign) of the same compound?
The value was 40.

And the “Selectivity 2B/2C” value ([4]; second screening campaign)?
The value was 11.

What about the “5-HT2B %MAX ± SEM” value (human 5-HT2B receptor; first screening campaign) of the same compound?
Its value is 92% ± 1.3%.

What about the “5-HT2B %MAX ± SEM” value (human 5-HT2B receptor; second screening campaign) of the same compound?
The value was 86% ± 4.7%.

What about the “5-HT2A %MAX ± SEM” value (human 5-HT2A receptor; first screening campaign) of the same compound?
The value was 80% ± 1.0%.

And the “5-HT2A %MAX ± SEM” value (human 5-HT2A receptor; second screening campaign)?
Its value is 79% ± 4.5%.

And the “hERG inhibition, concentration value” (hERG; quantity not given)?
The value was 3.6 mM.

And the hERG inhibition (hERG)?
Its hERG inhibition is “very modest inhibition”.

Which results are given for c1cc2c3c(c1)c1c(n3CCNC2)CCCC1 [5 (WAY 629), WAY 629]?
5-HT2C %MAX ± SEM ([4]; first screening campaign): 80% ± 1.1%; 5-HT2C %MAX ± SEM ([4]; second screening campaign): 82% ± 3.5%; 5-HT2B EC50 ± SEM (human 5-HT2B receptor; first screening campaign (upper table section), HEK-293, calcium flux): NA (NA: Emax ≤ 12%); 5-HT2B %MAX ± SEM (human 5-HT2B receptor; first screening campaign): 6% ± 1.3%; EC50 (human 5-HT2B receptor; read-out: 5-HT2B EC50, second screening campaign, value in μM): > 5 µM; 5-HT2B %MAX ± SEM (human 5-HT2B receptor; second screening campaign): 17% ± 2.7%; 5-HT2A EC50 ± SEM (human 5-HT2A receptor; first screening campaign (upper table section)): NA (NA: Emax ≤ 12%); 5-HT2A %MAX ± SEM (human 5-HT2A receptor; first screening campaign): 1% ± 0.2%; 5-HT2A EC50 ± SEM (human 5-HT2A receptor; second screening campaign (lower table section)): NA (NA: Emax ≤ 12%); 5-HT2A %MAX ± SEM (human 5-HT2A receptor; second screening campaign): 7% ± 2.0%; hERG inhibition (hERG): no hERG inhibition was detected

With CN1CCN(C2=Nc3cc(Cl)ccc3Nc3ccccc32)CC1 [clozapine] as the compound, how does the “Normalization of PCP-disrupted PPI” value [5] read?
The value was “robustly normalizes PCP-disrupted PPI”.

Reference: PMC2951742 (ChemMedChem, 2010)
